US11324209B2, “Composition to promote migration of acarids” (ACAR'UP SPRL, priority 2017, dated 2022)
Values joined by “and” are separate entries in the source; they are usually repeats but may differ in a detail not shown here. Identical values can stand only once.

Columns and labels:
[1] = test system: Dermatophagoides pteronyssinus; experiment: Binary choice test of mites between tested felt and control felt in a Petri dish; type: in vivo; parameters: key to stat Test: Stat diff: statistically different; NS: not significant; details: for Mean (binary choice of dust mites, tested felt) / stat Test: control felt + 1 μL H2O
Description: Aim of the experiments: All experiments are tests of binary choice aiming to determine the preference of mites and the place where they prefer to stay (at least for 30 min).
Rearing: The species studied was Dermatophagoides pteronyssinus, a dust mite common in mattresses in Eurasia. Mites are reared in Petri dishes and fed with human skin flakes (skin and whiskers obtained by cleaning electric shavers). All mites were reared together under defined conditions (20° C. and 75% relative humidity). The experiments took place in a room kept at 20° C. and 40% relative humidity.
Materials and methods: A group of mites (20<n<40) was placed in the centre of a Petri dish (∅=5.5 cm) around which two semi-circles of felt were placed (see FIG. 1). The pieces of felts were 70 mg/cm^2, their thickness was 2 mm. One felt is the control (control felt); the other felt is the felt with the tested item, for instance the felt that is impregnated with a chemical compound that is tested.
Mites move spontaneously towards one of the two felts.
Observations and counting of mites was made under binocular microscope (magnification 10*). The set-up is illuminated with a cold lamp (KL 1500 LCD, Schott®), the lighting is symmetric and the light intensity was 50 Klux. The experimental conditions were controlled in the room (T° C.: 19-22° C. and RH 40%).
Aim of the experiments: In the experiments, the tested felt was impregnated with chemicals that may be chemical acarid attractants.
Different compounds were tested: Citral, limonene, α-pinene, eucalyptol, lavendulol, polysorbate 20. Dust mites were attracted to the dilute citral (10^−6) but the citral 10^−3 is repellent. The limonene (dil. 10^−5) and the α-pinene (dil. 10^−6) were attractive for mites.

[2] = test system: Dermatophagoides pteronyssinus; experiment: Trap test on infested mini-mattresses with sprayed felt, mites counted via Berlese funnel; type: in vivo; details: felt 100% polyester; 4 ml/200 cm^2; drying + exposure 0 h + 2 h; dilution 0.00001
Description: Rearing: The species studied was Dermatophagoides pteronyssinus, a dust mite common in mattresses in Eurasia. Mites are reared in Petri dishes and fed with human skin flakes (skin and whiskers obtained by cleaning electric […]). All mites were reared together under defined conditions (20° C. and 75% relative humidity). The experiments took place in a room kept at 20° C. and 40% relative humidity. Aim of the experiments: The aim was to test the trap in condition similar to the conditions that will be met by the user of the trap. Materials and methods: The mattresses were built at a smaller scale (15× reduction) than usual mattresses. These mini-mattresses are made in polyurethane and covered by a cover in cotton. […] The fabric was a felt of 20 mg/cm^2 and is a rectangle of 10 cm×20 cm. It was placed on the mini-mattress. Then the attractive solution was sprayed on the fabric with a spray bottle. The fabric was left in place on the mattress. During this time, the mites moved in the felt. It is very difficult to count directly the mites hidden in the mattress and in the fabric. Therefore, we used a Berlese funnel which is a device that is usually used to separate insects from litter. Here, we used it to separate the mites form their mattress or from the fabric. […] The jar was emptied into a Petri dish and we counted mites under binocular. […]

[3] = Shelf life and storage of the aqueous solution, citral and limonene by GC; type: physicochemical
Description: Finding an appropriate storage material. Verifying the presence of volatile attractive molecules in fresh solutions (freshly produced, 1 day old) and stored solutions (8-12 months). Determining the quantity of those attractive molecules in said solutions, and thus allowing to follow said solutions' chemical profiles within time.
An aqueous solution of 3.5 ng/μL essential oil from Melissa officinalis, 3.6 ng/μL essential oil from Cymbopogon flexuosus citraliferum and 5 ng/μL polysorbate 20 was produced, bottled and stored.
Bottle material test: Two types of 100-ml bottles were tested. A plastic and an aluminum bottle were produced (20 bottles for each material). The bottles were stored 1 month, and then tested for the presence of citral.
Long term shelf life test: 38 bottled solutions (stored 8-12 months) and 11 bottled fresh solutions (stored 1 day) were tested to compare the presence and quantity of citral and limonene.
Quantitative measurements for citral and limonene were done by gas chromatography (GC). These are well known in the art. The essential oils were extracted from 25 ml of said bottled solution using 2 ml of n-hexane (LC-MS or HPLC grade). A sample of (1 μl) of the n-hexane extract was injected in the GC-MS equipped with a mass detector and using an OPTIMA-5MS capillary column (30 m, 0.25 mm I.D., […]). Programmed temperature elution was employed with an initial temperature of 40° C., then ramped to 280° C. at 8° C./min and held at 280° C. for 5 min. Helium was used as the carrier gas. Electron impact ionization was performed using an electron energy of 70 eV and a mass range of 40-800 m/z.

[4] = test system: acarids; experiment: Acarid migration tests of attraction enhancers alone and with limonene (description); type: in vivo; details: for acarid attracting effect when used alone: low doses
[5] = blue felt + 1 μL, dil 10^−6, control white felt + 1 μL H2O
[6] = felt + 1 μL of Citral-0 (dilution not given)
[7] = Aluminium bottle, stored 1 month

## CC(C)=CCCC(C)=CC=O [Citral, 3,7-dimethyl-2,6-octadienal]
[1]; [5]
  Mean (compound and color): 0.84
  Test stat (compound and color): diff stat
[1]; blue felt in combination with citral
  migration of the mites toward the blue felt: 84%
[1]; dilution 10^−3
  effect on dust mites: repellent
[1]; dilution 10^−6
  effect on dust mites: attracted
[1]; [6]
  Mean (binary choice of dust mites, tested felt): 0.03
  stat Test: Stat diff
[1]; felt + 1 μL, dil 10^−3
  Mean (binary choice of dust mites, tested felt): 0.23
  stat Test: Stat diff
[1]; felt + 1 μL, dilution 10^−6
  Mean (binary choice of dust mites, tested felt): 0.72
  stat Test: Stat diff
[2]
  trapped living mites: 17%
[3]; 38 solutions, 8-12 months after production
  concentration in stored solutions (mean ± St. Dev.) / detection: not detected
[3]; plastic and aluminium bottles, stored 1 month
  presence in bottled solution (bottle material test): present in each sample analysed

## CC(C)=CCCC(C)CC=O (centres unmarked) [Citronellal, 3,7-dimethyloct-6-en-1-al]
[4]
  acarid attracting effect when used alone: mild acarid attractant
[4]; tested with limonene for long contact times
  migrated population: ~1

## CC12CCC(CC1)C(C)(C)O2 [Eucalyptol, 1,3,3-Trimethyl-2-oxabicyclo [2.2.2.]octane]
[1]; dilution not stated
  effect on dust mites: no statistically significant effect
[1]; felt + 1 μL, dilution 10^−6
  Mean (binary choice of dust mites, tested felt): 0.48 and 0.51
  stat Test: NS

## CC(C)=CCC/C(C)=C/C=O [Geranial]
[3]; [7]
  content in the bottled aqueous solution (bottle material test): 12.56% ± 1.79
[3]; Plastic bottle, stored 1 month
  content in the bottled aqueous solution (bottle material test): 13.03% ± 1.25

## C=C(C)[C@H](CO)CC=C(C)C [Lavendulol]
[1]; dilution not stated
  effect on dust mites: no statistically significant effect
[1]; felt + 1 μL, dilution 10^−6
  Mean (binary choice of dust mites, tested felt): 0.46 and 0.51
  stat Test: NS

## C=C(C)C1CC=C(C)CC1 (centres unmarked) [Limonene, 1-methyl-4-(1-methylethenyl)-cyclohexene]
[1]; dil. 10^−5
  effect on dust mites: attractive
[1]; felt + 1 μL, dil. 10^−5
  Mean (binary choice of dust mites, tested felt): 0.61
  stat Test: Stat diff
[1]; felt + 1 μL, dilution 10^−6
  Mean (binary choice of dust mites, tested felt): 0.48
  stat Test: NS

## C=CC(C)(O)CCC=C(C)C (centres unmarked) [Linalool, 3,7-dimethyl-1,6-octadien-3-ol]
[4]
  acarid attracting effect when used alone: did not appear to have a significant attracting effect
[4]; combined with limonene and other attractants
  effect in combination with limonene: significant increase in the migrated population

## CC(C)=CCC/C(C)=C\C=O [Neral]
[3]; [7]
  content in the bottled aqueous solution (bottle material test): 12.68% ± 0.18
[3]; Plastic bottle, stored 1 month
  content in the bottled aqueous solution (bottle material test): 12.63% ± 0.59

## CC1=CC[C@H]2C[C@@H]1C2(C)C [α-pinene, (15,55)-2,6,6-trimethylbicyclo[3.1.1]hept-2-ene]
[1]; dilution 10^−6
  effect on dust mites: attractive
[1]; felt + 1 μL, dil. 10^−5
  Mean (binary choice of dust mites, tested felt): 0.45
  stat Test: NS
[1]; felt + 1 μL, dilution 10^−6
  Mean (binary choice of dust mites, tested felt): 0.58
  stat Test: Stat diff

## polyoxyethylene (20) sorbitan monolaurate [Polysorbate 20]
[1]; dilution not stated
  effect on dust mites: no statistically significant effect
[1]; felt + 1 μL, dilution 10^−6
  Mean (binary choice of dust mites, tested felt): 0.50 and 0.53
  stat Test: NS
